Measurements: ChEMBL document CHEMBL1799917, “Isolation, sequencing, and structure-activity relationships of cyclotides” (J Nat Prod, 2010)
The source made the active and inactive calls. No cut-off for these calls is given here. Where a SMILES comes first, the peptide text is derived from it. Bridges are numbered along the chain shown (N, C = ends).

Legend:
[1] = test system: Human immunodeficiency virus 1; test: Antiviral activity against HIV1 infected in human CEM-SS cells assessed as protection against virus-induced cytopathic effect by XTT method; type: functional, organism-based; conditions: Human immunodeficiency virus 1, CEM-SS
CEM-SS (Homo sapiens) = test: Cytotoxicity against human CEM-SS cells
Helicoverpa armigera = test: Insecticidal activity against Helicoverpa armigera assessed as growth inhibition; type: functional, organism-based
[2] = Hemolytic activity in human type A RBC assessed as hemolysis after 1 hr by microtitre plate; type: ADME, cell-based; conditions: Erythrocyte
Helicoverpa punctigera = test: Insecticidal activity against Helicoverpa punctigera assessed as inhibition of development of larvae at 0.825 umol/g after 16 days; type: functional, organism-based
[3] = Hemolytic activity in human type A RBC assessed as concentration required to cause 75% hemolysis after 1 hr by microtitre plate; type: ADME, cell-based; conditions: erythrocyte

CC(C)C[C@@H]1NC(=O)[C@H](CC(C)C)NC(=O)[C@@H]2CSSC[C@@H]3NC(=O)[C@H]([C@@H](C)O)NC(=O)[C@@H]4CSSC[C@H](NC(=O)[C@H](CC(N)=O)NC(=O)[C@H](CC(C)C)NC(=O)[C@H](C(C)C)NC(=O)[C@H](CO)NC(=O)CNC(=O)[C@H](CC(=O)O)NC(=O)[C@H](CCCCN)NC(=O)[C@H]([C@@H](C)O)NC(=O)[C@H](CSSC[C@H](NC(=O)[C@H]([C@@H](C)O)NC(=O)CNC1=O)C(=O)N[C@@H](Cc1ccc(O)cc1)C(=O)N[C@@H]([C@@H](C)O)C(=O)N[C@@H]([C@@H](C)O)C(=O)NCC(=O)N4)NC(=O)[C@H](C(C)C)NC(=O)[C@H](CCCNC(=N)N)NC(=O)[C@H](Cc1ccc(O)cc1)NC(=O)[C@H](CCCCN)NC(=O)[C@H](CC(N)=O)NC3=O)C(=O)NCC(=O)N[C@@H](CCC(=O)O)C(=O)N[C@@H]([C@@H](C)O)C(=O)N2 [KALATA B8] (cyclo(CGETCLLGTCYTTGCTCNKYRVCTKDGSVLN); disulfide 1-15, 5-17, 10-23)
EC50 [1]: 2.5 µM
IC50 (CEM-SS (Homo sapiens)): 3.5 µM

CC[C@H](C)[C@@H]1NC(=O)[C@@H]2CCCN2C(=O)[C@H](Cc2c[nH]c3ccccc23)NC(=O)[C@H]([C@@H](C)O)NC(=O)[C@@H]2CSSC[C@@H]3NC(=O)[C@](C)([C@@H](C)O)NC(=O)[C@H](CCC(=O)O)NC(=O)CNC(=O)[C@@H]4CSSC[C@H](NC(=O)CNC(=O)[C@@H]5CCCN5C(=O)[C@H]([C@@H](C)O)NC(=O)[C@H](CC(N)=O)NC(=O)[C@H](CSSC[C@H](NC1=O)C(=O)N[C@@H]([C@@H](C)O)C(=O)N[C@@H](CCCNC(=N)N)C(=O)N[C@@H](CC(=O)O)C(=O)NCC(=O)N[C@@H](CC(C)C)C(=O)N1CCC[C@H]1C(=O)N[C@@H](C(C)C)C(=O)N4)NC(=O)[C@H]([C@@H](C)O)NC(=O)CNC(=O)CNC(=O)[C@H](Cc1ccccc1)NC3=O)C(=O)N[C@@H](CO)C(=O)N2
Activity (Helicoverpa armigera): Active

CC[C@H](C)[C@@H]1NC(=O)[C@H](C)NC(=O)[C@H](C)NC(=O)[C@H](CO)NC(=O)[C@H]([C@@H](C)CC)NC(=O)[C@@H]2CSSC[C@@H]3NC(=O)[C@H](C(C)C)NC(=O)[C@H](CCCCN)NC(=O)[C@H](CO)NC(=O)[C@H](CCCCN)NC(=O)[C@@H]4CSSC[C@H](NC(=O)[C@H](CO)NC(=O)[C@H](CCC(=O)O)NC(=O)CNC(=O)[C@H](CSSC[C@H](NC(=O)CNC1=O)C(=O)N[C@@H](CO)C(=O)N4)NC(=O)[C@@H]1CCCN1C(=O)[C@H]([C@@H](C)CC)NC(=O)CNC(=O)[C@H](CC(N)=O)NC(=O)[C@H](CCCNC(=N)N)NC(=O)[C@H](Cc1ccc(O)cc1)NC3=O)C(=O)N[C@@H](C(C)C)C(=O)N[C@@H](Cc1c[nH]c3ccccc13)C(=O)N[C@@H]([C@@H](C)CC)C(=O)N1CCC[C@H]1C(=O)N2 [CYCLOVIOLACIN O13] (cyclo(AAIGCSCKSKVCYRNGIPCGESCVWIPCIS); disulfide 5-19, 7-23, 12-28)
IC50 [2]: 11 µM

CC(C)C[C@@H]1NC(=O)CNC(=O)[C@H](CC(N)=O)NC(=O)[C@H](CCCNC(=N)N)NC(=O)[C@H]([C@@H](C)O)NC(=O)[C@H](CS)NC(=O)[C@H](C(C)C)NC(=O)[C@@H]2CCCN2C(=O)[C@H](CCC(=O)O)NC(=O)[C@H](CO)NC(=O)[C@H](CS)NC(=O)[C@H]([C@@H](C)O)NC(=O)[C@H](CS)NC(=O)CNC(=O)[C@@H]2CCCN2C(=O)[C@H]([C@@H](C)O)NC(=O)[C@H](CC(N)=O)NC(=O)[C@H](CS)NC(=O)[C@H]([C@@H](C)O)NC(=O)CNC(=O)CNC(=O)[C@H](C(C)C)NC(=O)[C@H](CS)NC(=O)[C@H]([C@@H](C)O)NC(=O)[C@H](CCC(=O)O)NC(=O)CNC(=O)[C@H](CS)NC(=O)[C@H](C(C)C)NC(=O)[C@@H]2CCCN2C1=O [KALATA B1]
Activity (Helicoverpa punctigera): Active

CC(C)C[C@@H]1NC(=O)CNC(=O)[C@H](CC(N)=O)NC(=O)[C@H](Cc2cnc[nH]2)NC(=O)[C@H]([C@@H](C)O)NC(=O)[C@@H]2CSSC[C@@H]3NC(=O)[C@H]([C@@H](C)O)NC(=O)CNC(=O)CNC(=O)[C@H](Cc4ccccc4)NC(=O)[C@@H]4CSSC[C@H](NC(=O)[C@H]([C@@H](C)O)NC(=O)[C@H](CSSC[C@H](NC(=O)[C@H]([C@@H](C)O)NC(=O)[C@@H]5CCCN5C1=O)C(=O)NCC(=O)N[C@@H](CCC(=O)O)C(=O)N[C@@H]([C@@H](C)O)C(=O)N4)NC(=O)CNC(=O)[C@@H]1CCCN1C(=O)[C@H]([C@@H](C)O)NC(=O)[C@H](CC(N)=O)NC3=O)C(=O)N[C@@H](CC(=O)O)C(=O)N1CCC[C@H]1C(=O)N[C@@H](Cc1c[nH]c3ccccc13)C(=O)N1CCC[C@H]1C(=O)N[C@@H](C(C)C)C(=O)N2 [CYCLOVIOLACIN O24] (cyclo(CDPWPVCTHNGLPTCGETCFGGTCNTPGCT); disulfide 1-19, 7-24, 15-29)
Activity [3]: 25 µM
